Data reported in PubChem BioAssay AID1963982 (Molecular Pharmacology Branch, DTP, NCI, 2024).

System: 313798-341-R-J2-PDC spheroids, viability
Test: Anticancer human tumor 313798-341-R-J2-PDC patient-derived cervical squamous cell carcinoma cell line growth inhibition [PI3K]
Settings: spheroids with HUVEC and MSC; for IC50: curve of first compound; for viability, T/C: stronger effect = lower value
In short: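 Agents were dosed from a top concentration near clinical Cmax (otherwise 10 microM) in half-log decrements, alone or combined with PI3K inhibitors. The spheroids contain tumor cells plus endothelial (HUVEC) and MSC stroma; viability is measured.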
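Also: spheroids exposed to compounds for seven days.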
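For viability, T/C in this document: 100% = DMSO vehicle control viability.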

CC(=O)c1c(C)c2cnc(Nc3ccc(N4CCNCC4)cn3)nc2n(C2CCCC2)c1=O + CC(Nc1ccc2c(c1)OCCn1cc(N3C(=O)OCC3C(F)F)nc1-2)C(N)=O
IC50 (second compound 0.00316 µM): > 100 nM
IC50 (second compound 0.01 µM): > 100 nM
IC50 (second compound 0.0316 µM): > 100 nM
IC50 (second compound 0.1 µM): > 100 nM
IC50 (second compound 0.316 µM): > 100 nM
IC50 (second compound 1 µM): > 100 nM
viability, T/C (second compound 0.00316 µM, first compound 0.000316 µM): 98.7%
viability, T/C (second compound 0.00316 µM, first compound 0.001 µM): 97.9%
viability, T/C (second compound 0.00316 µM, first compound 0.00316 µM): 107%
viability, T/C (second compound 0.00316 µM, first compound 0.01 µM): 102%
viability, T/C (second compound 0.00316 µM, first compound 0.0316 µM): 110%
viability, T/C (second compound 0.00316 µM, first compound 0.1 µM): 102%
viability, T/C (second compound 0.01 µM, first compound 0.000316 µM): 94.2%
viability, T/C (second compound 0.01 µM, first compound 0.001 µM): 100%
viability, T/C (second compound 0.01 µM, first compound 0.00316 µM): 113%
viability, T/C (second compound 0.01 µM, first compound 0.01 µM): 98.5%
viability, T/C (second compound 0.01 µM, first compound 0.0316 µM): 124%
viability, T/C (second compound 0.01 µM, first compound 0.1 µM): 99.3%
viability, T/C (second compound 0.0316 µM, first compound 0.000316 µM): 105%
viability, T/C (second compound 0.0316 µM, first compound 0.001 µM): 114%
viability, T/C (second compound 0.0316 µM, first compound 0.00316 µM): 108%
viability, T/C (second compound 0.0316 µM, first compound 0.01 µM): 110%
viability, T/C (second compound 0.0316 µM, first compound 0.0316 µM): 103%
viability, T/C (second compound 0.0316 µM, first compound 0.1 µM): 103%
viability, T/C (second compound 0.1 µM, first compound 0.000316 µM): 108%
viability, T/C (second compound 0.1 µM, first compound 0.001 µM): 102%
viability, T/C (second compound 0.1 µM, first compound 0.00316 µM): 102%
viability, T/C (second compound 0.1 µM, first compound 0.01 µM): 110%
viability, T/C (second compound 0.1 µM, first compound 0.0316 µM): 103%
viability, T/C (second compound 0.1 µM, first compound 0.1 µM): 113%
viability, T/C (second compound 0.316 µM, first compound 0.000316 µM): 82.8%
viability, T/C (second compound 0.316 µM, first compound 0.001 µM): 79.5%
viability, T/C (second compound 0.316 µM, first compound 0.00316 µM): 79.4%
viability, T/C (second compound 0.316 µM, first compound 0.01 µM): 86.1%
viability, T/C (second compound 0.316 µM, first compound 0.0316 µM): 83.8%
viability, T/C (second compound 0.316 µM, first compound 0.1 µM): 90.6%
viability, T/C (second compound 1 µM, first compound 0.000316 µM): 60.8%
viability, T/C (second compound 1 µM, first compound 0.001 µM): 57.5%
viability, T/C (second compound 1 µM, first compound 0.00316 µM): 58.3%
viability, T/C (second compound 1 µM, first compound 0.01 µM): 55.4%
viability, T/C (second compound 1 µM, first compound 0.0316 µM): 61.6%
viability, T/C (second compound 1 µM, first compound 0.1 µM): 56.5%
